Measured values from patent publication US11370794B2, “Toll-like receptor antagonist compounds and methods of use” (Dynavax Technologies Corporation, priority 2016, dated 2022).
pIC50: −log10 of the molar value.

Key:
TLR-2 = target: T1, TLR-2 (Homo sapiens, UniProt O60603); test: Receptor specificity in primary human leukocytes: TLR-2; type: cell-based
T1 construct: related toll-like receptor family members and other nucleic acid intracellular signaling receptors in primary human leukocytes; endogenous in cells; host or cells: primary human leukocytes
Procedure: (§1) Example B5—Receptor Specificity
(§2) Representative compounds were tested for antagonist activity against related toll-like receptor family members and other nucleic acid intracellular signaling receptors in primary human leukocytes. The compounds were Compound Nos. 5 and 9, and they were tested for their ability to inhibit human RIG-I, TLR-2, TLR-4, and TLR-5. With one exception, neither compound was able to inhibit these receptors greater than 50% at 10 μM.

TLR-5 = target: T2, TLR-5 (Homo sapiens, UniProt O60602); test: Receptor specificity in primary human leukocytes: TLR-5; type: cell-based
T2 construct: related toll-like receptor family members and other nucleic acid intracellular signaling receptors in primary human leukocytes; endogenous in cells; host or cells: primary human leukocytes
Procedure: as §1, §2

mouse TLR9 = target: T3, mouse TLR9 (Mus musculus, UniProt Q9EQU3); test: Inhibition of mouse TLR9 in mouse acute challenge model (serum IL-12); type: in vivo; conditions: 5 mg/Kg, intravenous or intra-peritoneal, serum IL-12 four hours after CpG DNA agonist
T3 construct: Balb/c mice (Charles River); host or cells: Balb/c mice, in vivo
T3 sequence (Q9EQU3 26-1032): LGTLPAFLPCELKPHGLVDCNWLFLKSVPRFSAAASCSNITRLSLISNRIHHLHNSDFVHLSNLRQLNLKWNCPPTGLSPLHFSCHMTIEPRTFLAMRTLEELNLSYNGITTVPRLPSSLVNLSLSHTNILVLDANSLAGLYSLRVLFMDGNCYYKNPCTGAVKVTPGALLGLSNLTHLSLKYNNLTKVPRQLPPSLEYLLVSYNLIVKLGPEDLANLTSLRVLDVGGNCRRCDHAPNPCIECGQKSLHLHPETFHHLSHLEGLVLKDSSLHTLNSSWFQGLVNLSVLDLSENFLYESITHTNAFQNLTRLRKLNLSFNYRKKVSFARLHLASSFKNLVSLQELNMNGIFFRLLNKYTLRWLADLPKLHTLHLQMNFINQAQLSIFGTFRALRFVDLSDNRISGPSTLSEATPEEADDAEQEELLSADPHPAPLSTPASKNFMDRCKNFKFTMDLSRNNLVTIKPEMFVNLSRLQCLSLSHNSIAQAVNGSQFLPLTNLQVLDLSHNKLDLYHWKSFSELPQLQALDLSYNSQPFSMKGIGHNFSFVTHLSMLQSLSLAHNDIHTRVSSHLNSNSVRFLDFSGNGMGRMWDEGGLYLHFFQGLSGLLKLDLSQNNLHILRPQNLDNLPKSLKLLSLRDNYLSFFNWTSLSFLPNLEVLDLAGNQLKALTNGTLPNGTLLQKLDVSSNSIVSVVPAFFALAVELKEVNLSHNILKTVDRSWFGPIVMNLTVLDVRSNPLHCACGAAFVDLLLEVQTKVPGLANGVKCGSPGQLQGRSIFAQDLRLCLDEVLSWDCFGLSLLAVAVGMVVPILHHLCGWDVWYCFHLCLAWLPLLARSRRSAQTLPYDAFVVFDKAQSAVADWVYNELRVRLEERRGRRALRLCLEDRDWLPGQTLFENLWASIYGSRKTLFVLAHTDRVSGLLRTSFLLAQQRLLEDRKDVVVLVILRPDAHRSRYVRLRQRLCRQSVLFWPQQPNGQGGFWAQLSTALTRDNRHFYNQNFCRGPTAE
Procedure: Example B4—Inhibition of Mouse TLR9 in Mouse Acute Challenge Model
When administered a CpG-containing DNA oligonucleotide, mice respond in an acute manner with release of cytokines into the peripheral blood within 6 hours. The addition of an inhibitor against TLR9 will attenuate the response to the DNA oligonucleotide agonist, which can be measured through a reduction in serum cytokines.
Balb/c mice (Charles River). TLR9 agonist 1018 ISS, CpG-containing DNA oligonucleotide. Mouse interleukin (IL)-12p40 ELISA kit (BD Pharmingen Cat. No. 551219 and 554476).
Mice were injected by the intravenous or intra-peritoneal routes with test compound at 5 mg/kg. Following injection of test compound, mice were injected with a TLR9 agonist (a CpG-containing DNA oligonucleotide) by the intra-peritoneal route to a final dose of approximately 2.5 mg/kg. Four hours following administration of the DNA oligonucleotide, blood was collected and processed to serum. The serum was tested for the presence of IL-12 using an ELISA kit. The amount of IL-12 produced is a reflection of the amount of TLR9-dependent receptor activity.

TLR-4 = target: T4, TLR-4 (Homo sapiens, UniProt O00206+Q9Y6Y9); test: Receptor specificity in primary human leukocytes: TLR-4; type: cell-based
T4 construct: related toll-like receptor family members and other nucleic acid intracellular signaling receptors in primary human leukocytes; endogenous in cells; host or cells: primary human leukocytes
Procedure: as §1, §2

human RIG-I = target: T5, human RIG-I (Homo sapiens, UniProt O95786); test: Receptor specificity in primary human leukocytes: RIG-I; type: cell-based
T5 construct: other nucleic acid intracellular signaling receptors in primary human leukocytes; endogenous in cells; host or cells: primary human leukocytes
T5 sequence (O95786 1-925): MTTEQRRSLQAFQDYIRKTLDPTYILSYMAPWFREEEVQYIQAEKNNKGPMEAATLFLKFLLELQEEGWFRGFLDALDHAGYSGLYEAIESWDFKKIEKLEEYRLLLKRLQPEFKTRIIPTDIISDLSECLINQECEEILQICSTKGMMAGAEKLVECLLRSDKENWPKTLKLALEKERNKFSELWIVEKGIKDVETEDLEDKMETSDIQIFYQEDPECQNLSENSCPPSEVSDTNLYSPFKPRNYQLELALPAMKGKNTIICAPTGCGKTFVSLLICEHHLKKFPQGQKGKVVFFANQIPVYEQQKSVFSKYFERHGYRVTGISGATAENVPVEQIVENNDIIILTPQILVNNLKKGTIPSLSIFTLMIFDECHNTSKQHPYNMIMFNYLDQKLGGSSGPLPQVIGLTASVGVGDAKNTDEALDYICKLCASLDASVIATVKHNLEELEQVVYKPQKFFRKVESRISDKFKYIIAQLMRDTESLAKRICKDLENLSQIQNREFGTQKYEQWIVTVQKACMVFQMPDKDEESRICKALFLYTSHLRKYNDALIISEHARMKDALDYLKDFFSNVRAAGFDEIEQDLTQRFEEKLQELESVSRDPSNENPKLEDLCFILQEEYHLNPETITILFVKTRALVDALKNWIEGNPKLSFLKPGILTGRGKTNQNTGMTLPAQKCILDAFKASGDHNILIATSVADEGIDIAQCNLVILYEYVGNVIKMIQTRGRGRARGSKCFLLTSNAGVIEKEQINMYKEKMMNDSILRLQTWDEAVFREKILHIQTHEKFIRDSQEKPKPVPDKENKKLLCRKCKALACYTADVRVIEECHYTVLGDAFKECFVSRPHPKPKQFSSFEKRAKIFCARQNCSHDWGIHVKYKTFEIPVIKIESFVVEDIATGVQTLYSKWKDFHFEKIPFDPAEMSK
Procedure: as §1, §2

T1 sequence (O60603 21-784): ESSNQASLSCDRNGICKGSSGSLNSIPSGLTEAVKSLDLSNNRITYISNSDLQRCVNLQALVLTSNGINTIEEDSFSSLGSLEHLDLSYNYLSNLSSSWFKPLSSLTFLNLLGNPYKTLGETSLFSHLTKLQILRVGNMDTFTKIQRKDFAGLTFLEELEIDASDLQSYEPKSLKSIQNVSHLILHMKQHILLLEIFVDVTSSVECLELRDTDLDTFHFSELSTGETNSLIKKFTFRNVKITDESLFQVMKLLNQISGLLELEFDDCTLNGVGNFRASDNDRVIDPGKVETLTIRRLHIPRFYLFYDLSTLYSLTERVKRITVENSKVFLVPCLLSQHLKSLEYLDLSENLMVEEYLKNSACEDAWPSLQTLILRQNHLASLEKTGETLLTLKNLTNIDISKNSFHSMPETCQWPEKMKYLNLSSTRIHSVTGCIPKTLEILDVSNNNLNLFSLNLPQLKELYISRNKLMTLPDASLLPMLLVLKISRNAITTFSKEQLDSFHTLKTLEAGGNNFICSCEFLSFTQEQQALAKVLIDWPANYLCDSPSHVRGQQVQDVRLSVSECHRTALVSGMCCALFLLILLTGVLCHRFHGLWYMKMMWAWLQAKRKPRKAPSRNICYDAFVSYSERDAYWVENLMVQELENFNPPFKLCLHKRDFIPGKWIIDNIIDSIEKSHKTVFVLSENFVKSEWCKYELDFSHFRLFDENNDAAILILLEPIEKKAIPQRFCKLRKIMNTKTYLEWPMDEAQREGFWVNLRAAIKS
T2 sequence (O60602 21-858): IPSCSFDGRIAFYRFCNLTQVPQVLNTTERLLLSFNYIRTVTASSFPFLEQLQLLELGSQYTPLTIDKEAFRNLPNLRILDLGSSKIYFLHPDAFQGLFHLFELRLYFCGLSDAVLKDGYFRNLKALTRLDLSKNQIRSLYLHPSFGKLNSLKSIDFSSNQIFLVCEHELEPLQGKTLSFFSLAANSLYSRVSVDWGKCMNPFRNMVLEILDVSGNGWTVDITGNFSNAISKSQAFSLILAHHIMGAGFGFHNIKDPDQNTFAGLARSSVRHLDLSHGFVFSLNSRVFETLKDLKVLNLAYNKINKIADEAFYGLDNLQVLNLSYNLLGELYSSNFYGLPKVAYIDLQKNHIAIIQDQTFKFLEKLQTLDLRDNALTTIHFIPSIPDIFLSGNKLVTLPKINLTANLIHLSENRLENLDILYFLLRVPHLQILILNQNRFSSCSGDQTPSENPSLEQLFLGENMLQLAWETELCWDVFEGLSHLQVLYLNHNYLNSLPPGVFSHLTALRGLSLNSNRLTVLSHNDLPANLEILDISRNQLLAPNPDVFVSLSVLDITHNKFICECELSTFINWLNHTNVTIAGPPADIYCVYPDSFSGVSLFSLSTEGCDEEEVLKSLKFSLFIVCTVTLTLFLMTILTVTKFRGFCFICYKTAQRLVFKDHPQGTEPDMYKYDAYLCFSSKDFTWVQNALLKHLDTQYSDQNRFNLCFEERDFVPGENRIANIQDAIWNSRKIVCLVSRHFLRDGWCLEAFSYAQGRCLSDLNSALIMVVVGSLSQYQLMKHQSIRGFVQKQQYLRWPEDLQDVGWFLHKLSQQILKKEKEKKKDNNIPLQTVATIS
T4 sequence (O00206 24-839): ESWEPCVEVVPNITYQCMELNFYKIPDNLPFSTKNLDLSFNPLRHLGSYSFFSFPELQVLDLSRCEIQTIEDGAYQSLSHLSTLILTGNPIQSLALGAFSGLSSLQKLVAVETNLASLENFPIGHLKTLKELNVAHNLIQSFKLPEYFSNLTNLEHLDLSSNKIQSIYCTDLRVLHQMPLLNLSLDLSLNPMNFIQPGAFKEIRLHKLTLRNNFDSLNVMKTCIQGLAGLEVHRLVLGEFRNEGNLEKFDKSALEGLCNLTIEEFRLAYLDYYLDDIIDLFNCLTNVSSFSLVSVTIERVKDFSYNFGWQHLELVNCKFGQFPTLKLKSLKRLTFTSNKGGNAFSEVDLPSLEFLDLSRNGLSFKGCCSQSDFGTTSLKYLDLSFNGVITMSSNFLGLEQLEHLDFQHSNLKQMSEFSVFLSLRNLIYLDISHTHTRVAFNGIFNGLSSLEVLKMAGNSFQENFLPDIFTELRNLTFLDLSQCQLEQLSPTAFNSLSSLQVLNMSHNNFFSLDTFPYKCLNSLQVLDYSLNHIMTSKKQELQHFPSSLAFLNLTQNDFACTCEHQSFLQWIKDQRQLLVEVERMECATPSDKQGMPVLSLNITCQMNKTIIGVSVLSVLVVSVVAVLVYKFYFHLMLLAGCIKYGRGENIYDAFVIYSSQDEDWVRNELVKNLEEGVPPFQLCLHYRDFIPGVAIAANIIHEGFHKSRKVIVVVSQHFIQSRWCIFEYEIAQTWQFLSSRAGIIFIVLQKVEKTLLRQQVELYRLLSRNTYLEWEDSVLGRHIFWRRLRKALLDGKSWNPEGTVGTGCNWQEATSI
T4 sequence (Q9Y6Y9 17-160 limits assumed): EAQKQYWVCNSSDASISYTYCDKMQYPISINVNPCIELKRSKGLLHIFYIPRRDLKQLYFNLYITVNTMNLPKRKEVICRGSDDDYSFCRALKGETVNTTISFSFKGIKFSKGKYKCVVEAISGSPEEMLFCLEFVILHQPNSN

| Structure (SMILES) | inhibition at 10 µM (TLR-2) [%] | inhibition at 10 µM (TLR-5) [%] | inhibition of TLR9 activity in mice (FIG. 1) (mouse TLR9) | inhibition at 10 µM (TLR-4) [%] | inhibition at 10 µM (human RIG-I; at 10 μM) [%] | pIC50 (human RIG-I; read-out: IC50 against RIG-I) |
| --- | --- | --- | --- | --- | --- | --- |
| Cc1ccc(-n2nc3c(N4CCC(C(=O)NCCCN(C)C)CC4)nnc(C)c3c2C)cc1 [Compound No. 5, 1-(3,4-dimethyl-2-(p-tolyl)-2H-pyrazolo[3,4-d]pyridazin-7-yl)-N-(3-(dimethylamino)propyl)piperidine-4-carboxamide] | ≤ 50 | ≤ 50 | inhibition of TLR9 activity | ≤ 50 | ≤ 50 | – |
| Cc1ccc(-n2nc3c(N4CCC(CCC(=O)NCCN(C)C)CC4)nnc(C)c3c2C)cc1 [Compound No. 9, 3-(1-(3,4-dimethyl-2-(p-tolyl)-2H-pyrazolo[3,4-d]pyridazin-7-yl)piperidin-4-yl)-N-(2-(dimethylamino)ethyl)propanamide] | ≤ 50 | ≤ 50 | – | ≤ 50 | – | 5.08 |
